Data reported in publication PMC3723861, “Nitrile hydratase of Rhodococcus erythropolis: characterization of the enzyme and the use of whole cells for biotransformation of nitriles” (3 Biotech, 2012).

Tested on: T1, nitrile hydratase
T1 construct: gene nthA; native intracellular enzyme purified from R. erythropolis MTCC 1526 grown with CoCl2; subunits about 29 kDa (alpha) and 30 kDa (beta); native 65 kDa
Experiment: nicotinamide formation by HPLC, Lineweaver-Burk plot
Type: biochemical, Rhodococcus erythropolis
Conditions: pH 7.0, 20 mM phosphate buffer, 25 °C (Fig. 6 legend says 20 °C); 0.2-2.0 mM substrate

How did the Km turn out when N#Cc1cccnc1 [3-cyanopyridine] was run?
Its Km is 624 µM.
